Experimental data taken from article PMC9866601, “Constituents of Pulicaria inuloides and Cytotoxic Activities of Two Methoxylated Flavonols” (Molecules, 2023).
Like-named read-outs stand apart in the source and are kept apart here.

Key:
[1] = system: PNT-2 cells; assay: MTT cytotoxicity assay, normal prostate epithelial cells PNT-2; format: cell-based; settings: Homo sapiens, PNT2
Method: (§1) Cytotoxic activity was tested on human cancer and normal cells, namely: prostate cancer cell lines DU145 (ATCC HTB-81) and PC3 (ATCC CRL-1435), prostate epithelial cells PNT-2 (ECACC 95012613), melanoma cell lines A375 (ATCC CRL-1619) and HTB140 (ATCC Hs 294T) and skin keratinocytes HaCaT (obtained as a kind gift from prof. Marta Michalik, Department of Cell Biology, Jagiellonian University). DU145 cells were grown in a modified Eagle’s medium with a low (1.0 g/L) glucose concentration, as well as PC3 and PNT-2 cells in Dulbecco’s modified Eagle’s media: F12 HAM nutrient mixture. At the same time, melanoma cells and keratinocytes were maintained in a modified Eagle’s medium with a high (4.5 g/L) glucose concentration. The culture media (all supplied by Sigma-Aldrich Co.; St. Louis, MO, USA) contained antibiotics and 10% fetal bovine serum (FBS). All cultures were maintained at 37 °C in a humidified 5% CO2-containing atmosphere.
(§2) The examined flavonols were diluted in the culture media from freshly made stock solutions in MeOH (10 mg/mL) to the working concentrations (from 5 to 100 μg/mL).
(§3) Cells were seeded in 96-well plates (1.5 × 10^4 cells/well) and preincubated for 24 h (37 °C, 5% CO2). Then, the culture medium was replaced with a fresh medium containing different concentrations of the tested compounds (5–100 µg/mL). The incubation lasted 48 h. Cell viability was measured by an MTT assay, as previously described. The absorbance at 490 nm was measured using a Synergy II Biotek (BioTek Instruments, Winooski, VT, USA) microplate reader. Cytotoxic activity was assessed based on the cell viability expressed as the percentage of living cells. The results were the means of three independent measurements (±SD). Doxorubicin (Ebewe Pharma GmbH., Unterach, Austria) was used as a reference cytostatic drug. The IC50 values were determined by plotting the percentage viability of the cells versus the concentration and adequate calculations made using either Excel or the AAT Bioquest website program (https://www.aatbio.com/tools/ic50-calculator, accessed on 4 September 2022).

[2] = system: DU145 cells; assay: MTT cytotoxicity assay, prostate cancer cells DU145; format: cell-based; settings: Homo sapiens, DU-145
Method: as §1, §2, §3

[3] = system: PC3 cells; assay: MTT cytotoxicity assay, prostate cancer cells PC3; format: cell-based; settings: Homo sapiens, PC-3, 48 h, 48 h treatment
Method: as §1, §2, §3

[4] = system: HaCaT cells; assay: MTT cytotoxicity assay, skin keratinocytes HaCaT; format: cell-based, human; settings: for IC50: Homo sapiens, HaCaT
Method: as §1, §2, §3

[5] = system: A375 cells; assay: MTT cytotoxicity assay, melanoma cells A375; format: cell-based, human; settings: for IC50: Homo sapiens, A-375
Method: as §1, §2, §3

[6] = system: HTB140 cells; assay: MTT cytotoxicity assay, melanoma cells HTB140; format: cell-based, human; settings: for IC50: Homo sapiens
Method: as §1, §2, §3

[7] = system: HeLa cells; design: method as in PMID 30673162; settings: in vitro; cited from earlier work
[8] = system: A549 cells; design: method as in PMID 30673162; settings: in vitro; cited from earlier work
[9] = system: cholinesterase; design: method as in PMID 30673162; settings: cited from earlier work
[10] = 48 h treatment, 5–100 μg/mL, MTT, read-out: IC50 PNT-2
[11] = 48 h treatment, 5–100 μg/mL, MTT, read-out: IC50 DU145
[12] = 48 h treatment, 5–100 μg/mL, MTT, read-out: IC50 HaCaT
[13] = 48 h treatment, 5–100 μg/mL, MTT, read-out: IC50 A375
[14] = 48 h treatment, 5–100 μg/mL, MTT, read-out: IC50 HTB140

| Compound | IC50 [1, 10] | IC50 ([1]; abstract, value in µM, read-out: IC50 PNT2 (remaining cell lines)) | IC50 [2, 11] | IC50 ([2]; abstract, value in µM, read-out: IC50 DU145 (remaining cell lines)) | IC50 ([3]; 5–100 μg/mL) | IC50 ([3]; value in µM) | IC50 [4, 12] | IC50 ([4]; abstract, value in µM, read-out: IC50 HaCaT (remaining cell lines)) | cytotoxic activity toward keratinocytes ([4]; dose range of 5–100 μg/mL) | IC50 [5, 13] | IC50 ([5]; abstract, value in µM, read-out: IC50 A375 (remaining cell lines)) | cytotoxic activity toward melanoma cells (A375) ([5]; dose range of 5–100 μg/mL) | IC50 [6, 14] | IC50 ([6]; abstract, value in µM, read-out: IC50 HTB140 (remaining cell lines)) | cytotoxic activity toward melanoma cells (HTB140) ([6]; dose range of 5–100 μg/mL) | cytotoxic activity against HeLa cells [7] | cytotoxic activity against A549 cells [8] | anticholinesterase activity [9] |
| --- | --- | --- | --- | --- | --- | --- | --- | --- | --- | --- | --- | --- | --- | --- | --- | --- | --- | --- |
| COc1cc(-c2oc3cc(OC)c(O)c(O)c3c(=O)c2OC)ccc1O [Compound 11, quercetagetin 3,7,3′-trimethyl ether] | 82.4 ± 2.42 µg/mL | > 150 µM | 54.87 ± 0.23 µg/mL | > 150 µM | 16.8 ± 0.77 µg/mL | 46.6 µM | > 100 µg/mL | > 150 µM | not active | > 100 µg/mL | > 150 µM | not active | > 100 µg/mL | > 150 µM | not active |  |  |  |
| C=C1CC/C=C(/CO)C(=O)C[C@@H]2[C@@H]1CC2(C)C [Compound 8, (1S,9R)-14-hydroxycaryophyll-5(6)-en-7-one] |  |  |  |  |  |  |  |  |  |  |  |  |  |  |  | moderate cytotoxic activity | moderate cytotoxic activity | weak anticholinesterase activity |
| C=C1CC/C=C(/CO)C(=O)C[C@@H]2[C@@H]1C[C@]2(C)COC(C)=O [Compound 9, (1S,9R)-12β-acetoxy-14-hydroxycaryophyll-5(6)-en-7-one] |  |  |  |  |  |  |  |  |  |  |  |  |  |  |  | moderate cytotoxic activity | moderate cytotoxic activity | weak anticholinesterase activity |
| COc1cccc2c1C(=O)c1c(O)c3c(c(O)c1C2=O)C[C@@](O)(C(=O)CO)C[C@@H]3O[C@H]1C[C@H](N)[C@H](O)[C@H](C)O1 [Doxorubicin, reference compound] | 1.38 µg/mL |  | 3.18 µg/mL |  | > 50 µg/mL |  | 4.68 µg/mL |  |  | 0.59 µg/mL |  |  | 5.71 µg/mL |  |  |  |  |  |
